Assays:
[1] = Pharmacokinetic profiles in rats; type: in vivo; settings: bioavailability
Procedure: The compounds disclosed herein are assessed in pharmacokinetic studies in mice, rats, dogs or monkeys. The compounds are administered as a water solution, 2% HPMC+1% TWEEN® 80 in water solution, 5% DMSO+5% solutol in saline, 4% MC suspension or capsule. For the intravenous administration, the animals are generally given at 1 or 2 mg/kg dose. For the oral (p.o.) dosing, mice and rats are generally given 5 or 10 mg/kg dose, and dogs and monkeys are generally given 10 mg/kg dose. The blood samples (0.3 mL) are drawn at 0.25, 0.5, 1.0, 2.0, 3.0, 4.0, 6.0, 8.0, 12 and 24 h time points or 0.083, 0.25, 0.5, 1.0, 2.0, 4.0, 6.0, 8.0 and 24 h time points and centrifuged at 3,000 or 4000 rpm for 2 to 10 min. The plasma solutions are collected, and stored at −20° C. or −70° C. until analyzed by LC/MS/MS as described above.

[2] = Compound stability in human liver microsomes; type: in vitro ADME; settings: 37° C.
Procedure: Human or rat liver microsomes incubations were conducted in duplicate in polypropylene tubes. The typical incubation mixtures consisted of human or rat liver microsomes (0.5 mg protein/mL), compounds of interest (5 μM) and NADPH (1.0 mM) in a total volume of 200 μL potassium phosphate buffer (PBS, 100 mM, pH 7.4). Compounds were dissolved in DMSO and diluted with PBS such that the final concentration of DMSO was 0.05%. The enzymatic reactions were commenced with the addition of protein after a 3-min preincubation and incubated in a water bath open to the air at 37° C. Reactions were terminated at various time points (0, 5, 10, 15, 30, 60 min) by adding equal volume of ice-cold acetonitrile. The samples were stored at −80° C. until LC/MS/MS assays.
The concentrations of compounds in the incubation mixtures of human or rat liver microsomes were determined by a LC/MS/MS method. The ranges of the linearity in the concentration range were determined for each tested compounds.
A parallel incubation was performed using denatured microsomes as the negative control, and reactions were terminated at various time points (0, 15, 60 min) after incubation at 37° C.
Dextromethorphan (70 μM) was selected as the positive control, and reactions were terminated at various time points (0, 5, 10, 15, 30, 60 min) after incubation at 37° C. […]

F [1] | T1/2 [2] | SMILES
163.3% | – | Nc1cc(Oc2ccc(NC(=O)c3c4n(n(-c5ccccc5)c3=O)CCC4)cc2)ccn1 [Ex. 1, N-(4-((2-aminopyridin-4-yl)oxy)phenyl)-2-oxo-1-phenyl-2,4,5,6-tetrahydro-1H-pyrrolo[1,2-b]pyrazole-3-carboxamide]
68.1% | – | O=C(Nc1ccc(Oc2ccnc(NC(=O)C3CC3)c2)cc1)c1c2n(n(-c3ccccc3)c1=O)CCC2 [Ex. 2, N-(4-((2-(cyclopropanecarboxamido)pyridin-4-yl)oxy)phenyl)-2-oxo-1-phenyl-2,4,5,6-tetrahydro-1H-pyrrolo[1,2-b]pyrazole-3-carboxamide]
94.5% | – | CC(=O)Nc1cc(Oc2ccc(NC(=O)c3c4n(n(-c5ccccc5)c3=O)CCC4)cc2)ccn1 [Ex. 3, N-(4-((2-acetamidopyridin-4-yl)oxy)phenyl)-2-oxo-1-phenyl-2,4,5,6-tetrahydro-1H-pyrrolo[1,2-b]pyrazole-3-carboxamide]
72.1% | ∞ | CC(=O)Nc1cc(Oc2ccc(NC(=O)c3c4n(n(-c5ccccc5)c3=O)CCOC4)nc2)ccn1 [Ex. 12, N-(5-((2-acetamidopyridin-4-yl)oxy)pyridin-2-yl)-2-oxo-1-phenyl-2,4,6,7-tetrahydro-1H-pyrazolo[5,1-c][1,4]oxazine-3-carboxamide]
87.9% | – | O=C(Nc1ccc(Oc2ccnc(NC(=O)C3CC3)c2)cn1)c1c2n(n(-c3ccccc3)c1=O)CCC2 [Ex. 14, N-(5-((2-(cyclopropanecarboxamido)pyridin-4-yl)oxy)pyridin-2-yl)-2-oxo-1-phenyl-2,4,5,6-tetrahydro-1H-pyrrolo[1,2-b]pyrazole-3-carboxamide]
66.7% | ∞ | O=C(Nc1ccc(Oc2ccnc(NC(=O)C3CC3)c2)cc1)c1c2n(n(-c3ccccc3)c1=O)CCOC2 [Ex. 19, N-(4-((2-(cyclopropanecarboxamido)pyridin-4-yl)oxy)phenyl)-2-oxo-1-phenyl-2,4,6,7-tetrahydro-1H-pyrazolo[5,1-c][1,4]oxazine-3-carboxamide]

— US9718841B2, “Bicyclic pyrazolone compounds and methods of use” (CALITOR SCIENCES, LLC, priority 2014, dated 2017)
